The values below come from a melting point compilation (Tetko et al.).

Residues, ends and D or L forms follow the SMILES beside them. *: point of attachment. Trt = c1ccc(C(c2ccccc2)(c2ccccc2)*)cc1; Boc = CC(C)(C)OC(=O)*

As a reminder, the melting point is the temperature of the solid-liquid transition. As to `C=CCOc1ccc(C[C@H](NC(=O)OC(C)(C)C)C(=O)N[C@H](C(=O)OC)C(C)C)cc1`, the melting point lay within 74 to 76 °C. `CNC(=O)OC(COc1ccc(C(C)(C)c2ccc(OCC(CN3C(=O)NC4(CC(C)(C)NC(C)(C)C4)C3=O)OC(=O)NC)cc2)cc1)CN1C(=O)NC2(CC(C)(C)NC(C)(C)C2)C1=O` (stereo not given) returned a melting point of 238 to 242 °C. For `O=S(=O)(Oc1ccc2c(OS(=O)(=O)c3ccc(OCc4ccccc4)cc3)c3cc(OS(=O)(=O)c4ccc(OCc5ccccc5)cc4)ccc3cc2c1)c1ccc(OCc2ccccc2)cc1` the value was 164 to 166 °C. For `O=C(Cc1cc(I)c(Oc2cc(I)c(OCC3CO3)c(I)c2)c(I)c1)NC1CCCCC1` (stereo not given) the value was 242 °C; for `CCCCCCCCCCCCN(CCCCCCCCCCCC)c1ccc2c(c1)O/C(=C1\Oc3cc(N(CCCCCCCCCCCC)CCCCCCCCCCCC)ccc3C1=O)C2=O`, 105 °C; for `CC(Br)C(=O)N=S(C)(=O)c1ccccc1` (stereo not given), 109 to 110 °C. Molecule `CCCSC(=O)c1ccc([Si](CCC(F)(F)C(F)(F)C(F)(F)C(F)(F)C(F)(F)C(F)(F)C(F)(F)C(F)(F)C(F)(F)C(F)(F)F)(CCC(F)(F)C(F)(F)C(F)(F)C(F)(F)C(F)(F)C(F)(F)C(F)(F)C(F)(F)C(F)(F)C(F)(F)F)CCC(F)(F)C(F)(F)C(F)(F)C(F)(F)C(F)(F)C(F)(F)C(F)(F)C(F)(F)C(F)(F)C(F)(F)F)cc1` yielded a melting point of 69 to 71 °C. In the case of `CC(C)[C@H](NC(=O)N(C)Cc1csc(N)n1)C(=O)N[C@@H](Cc1ccccc1)[C@H](O)[C@@H](O)[C@H](Cc1ccccc1)NC(=O)[C@@H](NC(=O)N(C)Cc1nccs1)C(C)C`, the melting point lay within 108 to 111 °C. The same measure for `CN(C)CCCN=S(=O)(c1ccccc1)c1cccs1` (stereo not given): 125 °C; for `COc1cc2c(cc1I)C(=O)CC2`: 129 to 130 °C.

In the case of `CC(=O)OCC(O)CO` (stereo not given), the melting point was 17 °C. The same measure for `CCCCCCCC/C=C\CCCCCCCCN`: 15 to 22 °C; for `CC(C)[C@H](NC(=O)N(C)Cc1ccccn1)C(=O)N[C@@H](Cc1ccccc1)[C@H](O)[C@@H](O)[C@H](Cc1ccccc1)NC(=O)[C@@H](NC(=O)N(C)Cc1cscn1)C(C)C`: 84 to 88 °C. For the molecule `COC(C)c1nc2c(N)nc3ccccc3c2n1CCOCCNC(=O)NCCCCCCCCNC(=O)NCCOCCn1c(C(C)OC)nc2c(N)nc3ccccc3c21` (stereo not given), the melting point is 172 to 177 °C. For `CCCCCCCCCCCCCCCCCCCCCCCCCCCCCCCCCCCCCCCCCCCC` the value was 87.5 to 88 °C; for `CCCCCCCCCCCCCCCCCCN(CCCCCCCCCCCCCCCCCC)C(=O)c1c(NS(=O)(=O)c2cccc(C(C)=O)c2)cc2ccccc2c1OC(=O)c1ccccc1`, 91 to 93 °C. The same measure for `O=C(Oc1c(I)cc(I)c(Br)c1I)C(F)(F)C(F)(Br)C(F)(F)Br` (stereo not given): 56 to 57 °C; for `COC(=O)c1cc(C(C)(C)C)c(OP2OP(Oc3c(C(C)(C)C)cc(C(=O)OC)cc3C(C)(C)C)OP(Oc3c(C(C)(C)C)cc(C(=O)OC)cc3C(C)(C)C)O2)c(C(C)(C)C)c1` (stereo not given): 185 to 200 °C. The same measure for `CCCCCCCCCCCCCCCCCC(=O)OCC=C(C)CCC=C(C)CCC=C(C)CCC=C(C)CCC=C(C)CCC=C(C)CCC=C(C)CCC=C(C)CCC=C(C)C`: 36 to 37 °C. `CC(C)[C@H](NC(=O)N(C)Cc1csc(N)n1)C(=O)N[C@@H](Cc1ccccc1)C[C@H](O)[C@H](Cc1ccccc1)NC(=O)[C@@H](NC(=O)N(C)Cc1csc(N)n1)C(C)C` gave a melting point of 110 to 114 °C.

The molecule `O=C(CCS(=O)(=O)CCCl)OCC(COC(=O)CCS(=O)(=O)CCCl)(COC(=O)CCS(=O)(=O)CCCl)COC(=O)CCS(=O)(=O)CCCl` yielded a melting point of 68 to 69 °C.

With `CC(C)(C)c1cc(C(=O)OCCN(CCOC(=O)c2cc(C(C)(C)C)c(O)c(C(C)(C)C)c2)C(=O)c2cc(C(C)(C)C)c(O)c(C(C)(C)C)c2)cc(C(C)(C)C)c1O`, the melting point is 200 to 202 °C.

The molecule `CCCCCCCCCCCCc1cc2c(cc1CCCCCCCCCCCC)C(=O)c1c(c(O)c3cc(CCCCCCCCCCCC)c(CCCCCCCCCCCC)cc3c1O)C2=O` showed a melting point of 66 to 76 °C.

Molecule `CN(C)CCCN1c2ccccc2Sc2ccc(Cl)cc21` had a melting point of 57 °C. For `CCC1(CC)c2cc(-c3nc4ccccc4s3)ccc2-c2ccc(C(CCCCCN)c3ccc4c(c3)C(CC)(CC)c3cc(-c5nc6ccccc6s5)ccc3-4)cc21` the value was 108 to 109 °C; for `CCCCCCCCCCCCCC(=O)Nc1ccc(Cl)c(NC2=NN(c3c(Cl)cc(Cl)cc3Cl)C(=O)C2Sc2nnnn2-c2cccc(C(=O)O)c2)c1` (stereo not given), 155 to 165 °C. For `CCC1(CC)c2cc(-c3nc4ccccc4s3)ccc2-c2ccc(N(Cc3ccccc3)c3ccc4c(c3)C(CC)(CC)c3cc(-c5nc6ccccc6s5)ccc3-4)cc21` the value was 174 to 176 °C.

Consider `O=C(Oc1cccc2cc3cccc(OC(=O)c4ccccc4Oc4ccccc4)c3c(OC(=O)c3ccccc3Oc3ccccc3)c12)c1ccccc1Oc1ccccc1`, for which the melting point was found to be 110 °C. `CS(=O)(=O)c1ccc(-c2cc3c(cc2C(=O)c2cc4c(cc2-c2ccc(S(C)(=O)=O)cc2)OC(c2cc(F)cc(F)c2)CO4)OCC(c2cc(F)cc(F)c2)O3)cc1` (stereo not given): the melting point was in the range of 191 to 193 °C. For `CCC(C=CC(C)C1CCC2C3CC=C4CC(OC(=O)N(CC(O)COC(c5ccccc5)(c5ccccc5)c5ccccc5)C(C)C)CCC4(C)C3CCC12C)C(C)C` (stereo not given) the value was 75 to 76 °C.

For the molecule `CP(C)CCP(C)C`, the melting point stood at 0 °C. In turn, `C=CC1=C(C)c2cc3[nH]c(cc4nc(cc5[nH]c(cc1n2)c(C)c5CCC(=O)OCCCCCCN(C)C)C(CCC(=O)OCCCCCCN(C)C)=C4C)c(C)c3C=C` yielded a melting point of 160 to 165 °C. Consider `CCCCCCCCCCCCCCCCS(=O)(=O)Nc1cccc2ccc(O)c(NS(=O)(=O)c3ccc(NC(C)=O)c4c(O)c(N=Nc5ccccc5OC)ccc34)c12`, for which the melting point was in the range of 177 to 180 °C. Take `CCCCCCCCCCCCCC=CC(OC(=O)c1ccccc1)C(COC1OC(CO)C(O)C(OCCCCC(C(=O)OC(C)(C)C)C(=O)OC(C)(C)C)C1O)NC(=O)CCCCCCCCCCCCCCC` (stereo not given): the melting point lay within 131 to 132 °C. Consider `CCc1nc2c(cnn2CC)c(NC2CCOCC2)c1CNC(=O)c1cccc(C(=O)NCc2ccc(C)c(-c3cccc(CN4CCN(C(=O)OC(C)(C)C)C(C)C4)c3)c2)c1` (stereo not given), for which the melting point is 115 to 118 °C. The same measure for `Cc1c(NC(=O)c2cccc(OCC(=O)NCCNC(=O)COc3cccc(C(=O)O)c3)c2)c2ccccn2c1C(=O)c1ccc(NC(=O)C(F)(F)F)c(C(=O)OCc2ccccc2)c1`: 197 °C; for `C=CC(=O)OCCCCCCOc1ccc(C(=O)Oc2ccc(OC(=O)c3ccc(OCCCCCCOC(=O)C=C)cc3)c(C(=O)OCCCCCCCCOc3ccc(C#N)cc3)c2)cc1`: 54.5 °C; for `COC(=O)C(Cc1ccccc1)NC(=O)C(Cc1ccccc1)NC(=O)C(CC(N)=O)NC(=O)C(CCCCNC(=O)OC(C)(C)C)NC(=O)C(CSC(c1ccccc1)(c1ccccc1)c1ccccc1)NC(=O)CNC(=O)C(C)NC(=O)CNC(=O)CNC(=O)C(CC(C)C)NC(=O)OC(C)(C)C` (stereo not given) (Boc-LGGAGC(Trt)K(Boc)NFF-OMe; configuration not given here): 238 to 240 °C. The same measure for `CCn1cc(C(=O)Nc2cc(Oc3ccc4nc(NC(=O)C5CC5)cn4n3)ccc2Cl)c(C)n1`: 200 °C. Consider `CC(CCOc1c(I)cc(I)cc1I)Oc1c(I)cc(I)cc1I` (stereo not given), for which the melting point fell in the range of 173 to 175 °C. Take `NC(=O)OCCCN1CCN2c3ccccc3Cc3ccccc3C2C1` (stereo not given): the melting point fell in the range of 160 to 161 °C. For `CCCCCCCCCCCCCCCCS(=O)(=O)Nc1ccc2c(c1)C(NS(=O)(=O)CCCCCCCCCCCCCCCC)(c1ccccc1)C=N2` (stereo not given) the value was 210 to 212 °C; for `CS(=O)(=O)c1ccc(-c2nc(C(F)(F)F)nc(N3CCN(C(=O)c4cccs4)CC3)c2-c2ccccc2)cc1`, 189 to 194 °C. The same measure for `COc1ccc([C@@H]2Sc3ccccc3N(CCN(C)C)C(=O)[C@@H]2OC(=O)CCC(=O)O[C@H]2C(=O)N(CCN(C)C)c3ccccc3S[C@H]2c2ccc(OC)cc2)cc1` (relative stereo): 112 to 115 °C; for `COC(=O)CNC(=O)[C@H](NC(=O)[C@@H](CSC(c1ccccc1)(c1ccccc1)c1ccccc1)NC(=O)[C@@H](CCCCNC(=O)OC(C)(C)C)NC(=O)C[C@H](O)C=CCCSC(c1ccccc1)(c1ccccc1)c1ccccc1)C(C)C`: 85 to 87 °C; for `CC(C)(C)OC(=O)NCc1ccc(CNC(=O)N2CCN(C(=O)CN3CCC(=O)N(CC(=O)N4CCN(C(=O)NCc5ccc(CNC(=O)OC(C)(C)C)cc5)CC4)CCC3=O)CC2)cc1`: 156 to 160 °C. With `CS(=N)(=O)c1ccc(Nc2ncc(Br)c(Cl)n2)cc1` (racemic), the melting point fell in the range of 170 to 173 °C. Molecule `CCOC(=O)C(C)OC(=O)c1c(I)c(NC(C)=O)c(I)c(C(=O)OC(C)C(=O)OCC)c1I` (stereo not given) yielded a melting point of 160 to 165 °C.

Take `Cc1c(C2=CC(c3c(C)n(Cc4ccc(Cl)cc4)c4ccc([N+](=O)[O-])cc34)(c3c(C)n(Cc4ccc(Cl)cc4)c4ccc([N+](=O)[O-])cc34)OC2=O)c2cc([N+](=O)[O-])ccc2n1Cc1ccc(Cl)cc1`: the melting point was 227 to 228 °C. The same measure for `NC(=NO)c1ccc(Cl)cc1Cl`: 149 to 151 °C; for `CN=S(=O)(NC(=O)Nc1nc(C)nc(OC)n1)c1ccccc1Cl` (stereo not given): 154 to 160 °C; for `COc1cc(OC)c(/C=C/C(c2ccc(OC)c(NC(=O)CO)c2)S(=O)(=O)C(/C=C/c2c(OC)cc(OC)cc2OC)c2ccc(OC)c(NC(=O)CO)c2)c(OC)c1` (stereo not given): 174 to 176 °C.

Consider `Cc1ccc(C(=O)Oc2ccc3c(OC(=O)c4ccc(C)c(OCc5ccccc5)c4)c4ccccc4cc3c2OC(=O)c2ccc(C)c(OCc3ccccc3)c2)cc1OCc1ccccc1`, for which the melting point was 132 to 135 °C.

For `CC1(C)CC2(CC(C)(C)N1)NC(=O)N(CC(COc1ccc(C(C)(C)c3ccc(OCC(CN4C(=O)NC5(CC(C)(C)NC(C)(C)C5)C4=O)OC(=O)Nc4ccccc4)cc3)cc1)OC(=O)Nc1ccccc1)C2=O` (stereo not given), the melting point was 202 to 207 °C. The same measure for `ON=C(Cl)c1ccc(Cl)cc1`: 87.5 °C.
